In patent US11787833B2, “Modified cyclic dinucleoside compounds as sting modulators” (ALIGOS THERAPEUTICS, INC., priority 2019, dated 2023) one finds EC50 data, which are given here for 34 compounds.

The experiment has as its target T1, 293T-Dual hSTING-R232 cells (Homo sapiens, UniProt Q86WV6, H232R).
T1 construct: host or cells: 293T-Dual hSTING-R232 cells (HEK 293T)
Nature of the experiment: 293T R232 cell reporter assay (HEK 293T reporter assay). In kind it is cell-based. The settings on record: digitonin 10 μg/mL, 30 min exposure, 20 h incubation. The method, then:
293T-Dual hSTING-R232 cells (Invivogen) were plated in 96 well plates at a density of 5×10^4 cells per well in DMEM supplemented with 10% FBS, 1% Pen-Strep, 1% non-essential amino acids, 1% glutamine, and 1% HEPES. Assay setup took place after allowing cells to adhere for 48 h. Compounds dissolved in water were serially diluted in dosing buffer containing 10 μg/mL digitonin. Media was aspirated from the cells, and 50 μL buffer with compound was added in triplicate. After 30 min at 37° C., buffer was aspirated and replaced with 100 μL media. Cells were incubated for 20 h at 37° C., 5% CO2. IFN-beta expression and activation of the interferon regulatory factor (IRF) were measured based on luciferase and alkaline phosphatase reporter activity, respectively. Cell viability was determined in parallel.
For orientation: A reporter such as luciferase makes a cellular process visible.

[1] abbreviates: alkaline phosphatase reporter, read-out: EC50 [μM] IRF reporter.
Where [2] appears, read: luciferase reporter, read-out: EC50 [μM] IRN-β reporter.
The mark [3] stands for this setting: EC50 [μM] IRF reporter, alkaline phosphatase reporter.
Where [4] appears, read: EC50 [μM] IRN-β reporter, luciferase reporter.

Read-outs that look alike come from different tables or passages of the source.

T1 sequence (Q86WV6 whole entry H232R): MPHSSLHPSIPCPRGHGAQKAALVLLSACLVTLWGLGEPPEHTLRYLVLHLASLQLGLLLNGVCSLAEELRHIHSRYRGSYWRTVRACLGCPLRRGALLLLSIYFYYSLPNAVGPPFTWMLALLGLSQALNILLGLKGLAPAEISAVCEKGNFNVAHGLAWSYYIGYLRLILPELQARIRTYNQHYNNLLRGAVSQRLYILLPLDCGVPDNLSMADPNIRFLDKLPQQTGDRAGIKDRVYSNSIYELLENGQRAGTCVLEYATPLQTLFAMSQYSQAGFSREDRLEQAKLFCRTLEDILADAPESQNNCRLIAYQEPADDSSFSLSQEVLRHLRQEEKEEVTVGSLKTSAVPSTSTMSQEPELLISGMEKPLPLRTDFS

The term EC50 denotes the concentration at which the effect is half-maximal. For the compound `COC1C2COP(=O)(S)OC3C(COP(=O)(S)OC1C(c1snc4c(=O)[nH]c(N)nc14)O2)OC(n1cnc2c(N)ncnc21)C3F` (stereo not drawn) [Compound 1-48d], under setting [1], the EC50 is < 0.25 µM.

In the case of `Nc1nc2c(ncn2[C@@H]2O[C@@H]3COP(=O)(O)O[C@@H]4[C@@H](COP(=O)(O)O[C@H]3[C@H]2O)[C@@H]2C[C@@]2(n2cnc3c(N)ncnc32)[C@@H]4O)c(=O)[nH]1` [Compound 1-17], the half-maximal effective concentration (EC50) was < 0.25 µM under setting [1] and < 0.25 µM under setting [2]. As to `Nc1ncnc2c1ncn2C1OC2COP(=O)(S)OC3C(O)C(n4cnc5c(N)ncnc54)C4CC43COP(=O)(S)OC1C2O` (single isomer, unassigned) [Compound 1-14a], the EC50 under setting [1] was 0.25 to 100 µM and the concentration giving a half-maximal response (EC50) under setting [2] is > 100 µM. With `COC1C2COP(=O)(S)OC3C(O)C(n4cnc5c(N)ncnc54)C4CC43COP(=O)(S)OC1C(n1cnc3c(=O)[nH]c(N)nc31)O2` (single isomer, unassigned) [Compound 1-6a], the EC50 under setting [1] fell in the range of 0.25 to 100 µM and the half-maximal effective concentration (EC50) under setting [2] was in the range of 0.25 to 100 µM. For `Nc1ncnc2c1ncn2[C@H]1[C@H](O)[C@@H]2O[P@](=O)([S][Na])OC[C@H]3O[C@@H](n4cnc5c(N)ncnc54)[C@H](OP(=O)(O)OC[C@@]24C[C@H]14)[C@@H]3O` [Compound 1-15a], the EC50 was > 100 µM under setting [3] and > 100 µM under setting [4]. For the compound `COC1C2COP(=O)(S)OC3C(COP(=O)(S)OC1C(c1snc4c(=O)[nH]c(N)nc14)O2)OC(n1cnc2c(N)ncnc21)C3F` (stereo not drawn) [Compound 1-48c], the concentration giving a half-maximal response (EC50) by setting is: under setting [1], < 0.25 µM; under setting [2], 0.25 to 100 µM.

Take `Nc1nc2c(ncn2[C@H]2[C@@H]3OP(=O)(O)OC[C@]45C[C@@H]4[C@@H](n4cnc6c(N)ncnc64)[C@H](O)[C@@H]5O[P@](=O)([S][Na])OC[C@@]4(C[C@H]24)[C@H]3O)c(=O)[nH]1` [Compound 1-37]: the 50% effective concentration (EC50) was 0.25 to 100 µM under setting [3] and > 100 µM under setting [4].

`COC1C2COP(=O)(S)OC3C(O)C(n4cnc5c(N)ncnc54)C4CC43COP(=O)(S)OC1C(n1cnc3c(=O)[nH]c(N)nc31)O2` (single isomer, unassigned) [Compound 1-6b]: the concentration for a half-maximal effect (EC50) under setting [1] was in the range of 0.25 to 100 µM. With `Nc1nc2c(ncn2C2SC3COP(=O)(S)OC4C(O)C(n5cnc6c(N)ncnc65)C5CC54COP(=O)(O)OC2C3O)c(=O)[nH]1` (single isomer, unassigned) [Compound 1-30a], the EC50 under setting [1] fell in the range of 0.25 to 100 µM and the EC50 under setting [2] lay in the range of 0.25 to 100 µM.

Take `Nc1nc2c(ncn2C2OC34COC2C3OP(=O)(O)OCC2OC(c3snc5c(N)ncnc35)CC2OP(=O)(O)OC4)c(=O)[nH]1` (stereo not drawn) [Compound 1-52]: the 50% effective concentration (EC50) is < 0.25 µM under setting [1] and 0.25 to 100 µM under setting [2].

Turning to `Nc1nc2c(ncn2[C@H]2[C@H](O)[C@@H]3OP(=O)(O)OC[C@]45C[C@@H]4[C@@H](n4cnc6c(N)ncnc64)[C@H](O)[C@@H]5O[P@@](=O)([S][Na])OC[C@@]34C[C@H]24)c(=O)[nH]1` [Compound 1-38b], the half-maximal effective concentration (EC50) is, setting by setting: under setting [3], > 100 µM; under setting [4], > 100 µM. For `Nc1ncnc2c1ncn2C1OC2COP(=O)(S)OC3C(O)C(n4cnc5c(N)ncnc54)C4CC43COP(=O)(S)OC1C2O` (single isomer, unassigned) [Compound 1-14b], the EC50 runs as follows: under setting [1], 0.25 to 100 µM; under setting [2], > 100 µM. Regarding `Nc1ncnc2c1ncn2[C@H]1[C@H](O)[C@@H]2O[P@](=O)([S][Na])OC[C@H]3O[C@@H](n4cnc5c(=O)[nH]cnc54)[C@H](F)[C@@H]3OP(=O)(O)OC[C@@]23C[C@H]13` [Compound 1-20a], the concentration for a half-maximal effect (EC50) lay in the range of 0.25 to 100 µM under setting [3] and 0.25 to 100 µM under setting [4].

In the case of `Nc1nc2c(ncn2[C@H]2[C@H](O)[C@@H]3OP(=O)(O)OC[C@H]4O[C@@H](n5cnc6c(N)ncnc65)[C@H](F)[C@@H]4O[P@](=O)([S][Na])OC[C@@]34C[C@H]24)c(=O)[nH]1` [Compound 1-19a], the EC50 under setting [3] lay in the range of 0.25 to 100 µM and the EC50 under setting [4] fell in the range of 0.25 to 100 µM.

With `Nc1nc2c(ncn2[C@H]2[C@H](O)[C@@H]3OP(=O)(O)OC[C@]45C[C@@H]4[C@@H](n4cnc6c(N)ncnc64)[C@H](O)[C@@H]5O[P@](=O)([S][Na])OC[C@@]34C[C@H]24)c(=O)[nH]1` [Compound 1-38a], the EC50 is, setting by setting: under setting [3], > 100 µM; under setting [4], > 100 µM.

Turning to `CO[C@H]1[C@H]2OP(=O)(O)OC[C@@]34C[C@@H]3[C@@H](n3ccc5c(N)ncnc53)[C@H](O)[C@@H]4OP(=O)(O)OC[C@H]1O[C@H]2n1cnc2c(=O)[nH]c(N)nc21` [Compound 1-4], the half-maximal effective concentration (EC50) is < 0.25 µM under setting [1] and < 0.25 µM under setting [2]. Turning to `CO[C@H]1[C@H]2OP(=O)(O)OC[C@]34C[C@@H]3[C@@H](n3cnc5c(N)ncnc53)[C@H](O)[C@@H]4O[P@@](=O)(S)OC[C@H]1O[C@H]2n1nnc2c(=O)[nH]c(N)nc21` [Compound 1-35b], the 50% effective concentration (EC50) is, setting by setting: under setting [1], < 0.25 µM; under setting [2], 0.25 to 100 µM. Take `CO[C@H]1[C@H]2OP(=O)(O)OC[C@H]3O[C@@H](n4cnc5c(N)nnnc54)[C@H](O)[C@@H]3OP(=O)(O)OC[C@H]1O[C@H]2n1cnc2c(=O)[nH]c(N)nc21` [Compound 1-11]: the concentration for a half-maximal effect (EC50) under setting [1] was > 100 µM and the EC50 under setting [2] is > 100 µM.

Turning to `Nc1nc2c(ncn2[C@@H]2O[C@@H]3CO[P@@](=O)([S][Na])O[C@H]4[C@@H](O)[C@H](n5cnc6c(N)ncnc65)[C@H]5C[C@]54COP(=O)(O)O[C@@H]2[C@@H]3F)c(=O)[nH]1` [Compound 1-22a], the concentration for a half-maximal effect (EC50) by setting is: under setting [3], 0.25 to 100 µM; under setting [4], 0.25 to 100 µM. As for `COC1C2COP(=O)(O)OC3C(COP(=O)(O)OC1C(c1scc4c(=O)[nH]c(N)nc14)O2)OC(n1cnc2c(N)ncnc21)C3F` (stereo not drawn) [Compound 1-5], the concentration for a half-maximal effect (EC50) runs as follows: under setting [1], < 0.25 µM; under setting [2], < 0.25 µM. For `COC1C2COP(=O)(S)OC3C(COP(=O)(S)OC1C(c1snc4c(=O)[nH]c(N)nc14)O2)OC(n1cnc2c(N)ncnc21)C3F` (single isomer, unassigned) [Compound 1-48a], the EC50 is 0.25 to 100 µM under setting [1] and 0.25 to 100 µM under setting [2].

As to `CO[C@H]1[C@H]2OP(=O)(O)OC[C@@]34C[C@@H]3[C@@H](n3cnc5c(N)ncnc53)[C@H](OP(=O)(O)OC[C@H]1O[C@H]2n1cnc2c(=O)[nH]c(N)nc21)[C@@H]4O` [Compound 1-3], the EC50 reads like this: under setting [1], 0.25 to 100 µM; under setting [2], > 100 µM.

Consider `COC1C2COP(=O)(S)OC3C(COP(=O)(O)OC1C(n1cnc4c(=O)[nH]c(N)nc41)O2)C1CC1(n1cnc2c(N)ncnc21)C3O` (stereo not drawn) [Compound 1-16a], for which the EC50 under setting [1] was 0.25 to 100 µM and the EC50 under setting [2] is 0.25 to 100 µM. Take `COC1C2COP(=O)(S)OC3C(COP(=O)(S)OC1C(c1snc4c(=O)[nH]c(N)nc14)O2)OC(n1cnc2c(N)ncnc21)C3F` (single isomer, unassigned) [Compound 1-48b]: the EC50 was < 0.25 µM under setting [1] and < 0.25 µM under setting [2]. Regarding `COC1C2COP(=O)(O)OC3CC(c4snc5c(N)ncnc45)OC3COP(=O)(O)OC1C(n1cnc3c(=O)[nH]c(N)nc31)O2` (stereo not drawn) [Compound 1-25], the EC50 runs as follows: under setting [1], < 0.25 µM; under setting [2], < 0.25 µM.

With `Nc1nc2c(ncn2[C@H]2[C@@H]3OP(=O)(O)OC[C@H]4O[C@@H](n5cnc6c(N)ncnc65)[C@H](F)[C@@H]4OP(=O)(O)OC[C@]4(C[C@H]24)[C@H]3O)c(=O)[nH]1` [Compound 1-8], the concentration giving a half-maximal response (EC50) under setting [1] lay in the range of 0.25 to 100 µM and the half-maximal effective concentration (EC50) under setting [2] fell in the range of 0.25 to 100 µM. Consider `Nc1nc2c(ncn2[C@@]23C[C@H]2[C@@H]2COP(=O)(O)O[C@H]4[C@@H](F)[C@H](n5cnc6c(N)ncnc65)O[C@@H]4COP(=O)(O)O[C@@H]3[C@@H]2O)c(=O)[nH]1` [Compound 1-24], for which the EC50 is, setting by setting: under setting [1], 0.25 to 100 µM; under setting [2], > 100 µM. In the same order, the values of `Nc1nc2c(ncn2C2SC3COP(=O)(S)OC4C(O)C(n5cnc6c(N)ncnc65)C5CC54COP(=O)(O)OC2C3O)c(=O)[nH]1` (single isomer, unassigned) [Compound 1-30b] are > 100 µM and > 100 µM. In the same order, the values of `Nc1ncnc2c1ncn2C1OC2COP(=O)(S)OC3C(O)C(n4cnc5c(N)ncnc54)C4CC43COP(=O)(S)OC1C2O` (stereo not drawn) [Compound 1-14c] are 0.25 to 100 µM and 0.25 to 100 µM. For the compound `Nc1nc2c(nnn2[C@@H]2O[C@@H]3CO[P@@](=O)([S][Na])O[C@H]4[C@@H](O)[C@H](n5cnc6c(N)ncnc65)[C@H]5C[C@@]54COP(=O)(O)O[C@@H]2[C@@H]3O)c(=O)[nH]1` [Compound 1-34b], the half-maximal effective concentration (EC50) is, setting by setting: under setting [3], 0.25 to 100 µM; under setting [4], 0.25 to 100 µM.

Turning to `Nc1nc2c(ncn2[C@H]2[C@H](O)[C@@H]3OP(=O)(O)OC[C@H]4O[C@@H](n5cnc6c(N)ncnc65)[C@H](F)[C@@H]4OP(=O)(O)OC[C@@]34C[C@H]24)c(=O)[nH]1` [Compound 1-9], the half-maximal effective concentration (EC50) is < 0.25 µM under setting [1] and < 0.25 µM under setting [2].

In the case of `Nc1ncnc2c1ncn2[C@H]1[C@H](O)[C@@H]2O[P@@](=O)([S][Na])OC[C@H]3O[C@@H](n4cnc5c(N)ncnc54)[C@H](OP(=O)(O)OC[C@@]24C[C@H]14)[C@@H]3O` [Compound 1-15b], the concentration giving a half-maximal response (EC50) runs as follows: under setting [3], 0.25 to 100 µM; under setting [4], 0.25 to 100 µM. As to `CO[C@H]1[C@H]2OP(=O)(O)OC[C@@]34CO[C@@H]([C@H](n5cnc6c(N)ncnc65)O3)[C@@H]4OP(=O)(O)OC[C@H]1O[C@H]2c1snc2c(=O)[nH]c(N)nc12` [Compound 1-49], the EC50 is < 0.25 µM under setting [1] and 0.25 to 100 µM under setting [2].

`Nc1nc2c(ncn2C2OC34COP(=O)(O)OC5C6OCC5(COP(=O)(O)OC2C3C4)OC6n2cnc3c(N)ncnc32)c(=O)[nH]1` (stereo not drawn) [Compound 1-27]: the concentration giving a half-maximal response (EC50) runs as follows: under setting [1], < 0.25 µM; under setting [2], < 0.25 µM.
